{"source": "PubChem BioAssay AID2060905", "about": "(Molecular Pharmacology Branch, DTP, NCI, 2025);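 note: spheroids exposed to agents for seven days before readout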;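 for viability, T/C: luminescence viability as percent of DMSO vehicle control wells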", "test_system": "282377-053-R-J1-PDC complex spheroid viability", "assay": "Anticancer human tumor 282377-053-R-J1-PDC patient-derived colon adenocarcinoma cell line growth inhibition [RAS]", "conditions": "for IC50: curve of first compound; for viability, T/C: stronger effect = lower value", "method_in_brief": "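Multi-cell-type spheroids: tumor cells plus HUVEC endothelial cells and mesenchymal stem cells. RAS-pathway inhibitors were combined with targeted agents, each dosed in half-log steps down from clinical Cmax, or from 10 microM when Cmax was unknown.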", "key": {"[1]": {"conditions": "second compound 0.000949 µM, first compound 0.0316 µM"}, "[2]": {"conditions": "second compound 0.000949 µM, first compound 0.1 µM"}, "[3]": {"conditions": "second compound 0.000949 µM, first compound 0.316 µM"}, "[4]": {"conditions": "second compound 0.000949 µM, first compound 1 µM"}, "[5]": {"conditions": "second compound 0.003 µM, first compound 0.0316 µM"}, "[6]": {"conditions": "second compound 0.003 µM, first compound 0.1 µM"}, "[7]": {"conditions": "second compound 0.003 µM, first compound 0.316 µM"}, "[8]": {"conditions": "second compound 0.003 µM, first compound 1 µM"}, "[9]": {"conditions": "second compound 0.00949 µM, first compound 0.0316 µM"}, "[10]": {"conditions": "second compound 0.00949 µM, first compound 0.1 µM"}, "[11]": {"conditions": "second compound 0.00949 µM, first compound 0.316 µM"}, "[12]": {"conditions": "second compound 0.00949 µM, first compound 1 µM"}, "[13]": {"conditions": "second compound 0.03 µM, first compound 0.0316 µM"}, "[14]": {"conditions": "second compound 0.03 µM, first compound 0.1 µM"}, "[15]": {"conditions": "second compound 0.03 µM, first compound 0.316 µM"}, "[16]": {"conditions": "second compound 0.03 µM, first compound 1 µM"}, "[17]": {"conditions": "second compound 0.0949 µM, first compound 0.0316 µM"}, "[18]": {"conditions": "second compound 0.0949 µM, first compound 0.1 µM"}, "[19]": {"conditions": "second compound 0.0949 µM, first compound 0.316 µM"}, "[20]": {"conditions": "second compound 0.0949 µM, first compound 1 µM"}, "[21]": {"conditions": "second compound 0.3 µM, first compound 0.0316 µM"}, "[22]": {"conditions": "second compound 0.3 µM, first compound 0.1 µM"}, "[23]": {"conditions": "second compound 0.3 µM, first compound 0.316 µM"}, "[24]": {"conditions": "second compound 0.3 µM, first compound 1 µM"}}}
{"smiles": "CC(Nc1ccc2c(c1)OCCn1cc(N3C(=O)OCC3C(F)F)nc1-2)C(N)=O", "note": "(centres undefined) + CCn1c(-c2cc(N3CCN(C)CC3)cnc2C(C)OC)c2c3cc(ccc31)-c1csc(n1)CC(NC(=O)C1CC1C)C(=O)N1CCCC(N1)C(=O)OCC(C)(C)C2", "values": [{"measurement": "IC50", "setting": "second compound 0.000949 µM", "value": "> 10", "unit": "µM"}, {"measurement": "IC50", "setting": "second compound 0.003 µM", "value": "> 10", "unit": "µM"}, {"measurement": "IC50", "setting": "second compound 0.00949 µM", "value": "> 10", "unit": "µM"}, {"measurement": "IC50", "setting": "second compound 0.03 µM", "value": "> 10", "unit": "µM"}, {"measurement": "IC50", "setting": "second compound 0.0949 µM", "value": "> 10", "unit": "µM"}, {"measurement": "IC50", "setting": "second compound 0.3 µM", "value": "> 10", "unit": "µM"}, {"measurement": "viability, T/C", "setting": "[1]", "value": 95.5, "unit": "%"}, {"measurement": "viability, T/C", "setting": "[2]", "value": 104, "unit": "%"}, {"measurement": "viability, T/C", "setting": "[3]", "value": 81.1, "unit": "%"}, {"measurement": "viability, T/C", "setting": "[4]", "value": 80, "unit": "%"}, {"measurement": "viability, T/C", "setting": "second compound 0.000949 µM, first compound 3.16 µM", "value": 74.3, "unit": "%"}, {"measurement": "viability, T/C", "setting": "second compound 0.000949 µM, first compound 10 µM", "value": 77.4, "unit": "%"}, {"measurement": "viability, T/C", "setting": "[5]", "value": 96.5, "unit": "%"}, {"measurement": "viability, T/C", "setting": "[6]", "value": 104, "unit": "%"}, {"measurement": "viability, T/C", "setting": "[7]", "value": 95.2, "unit": "%"}, {"measurement": "viability, T/C", "setting": "[8]", "value": 81.8, "unit": "%"}, {"measurement": "viability, T/C", "setting": "second compound 0.003 µM, first compound 3.16 µM", "value": 75.3, "unit": "%"}, {"measurement": "viability, T/C", "setting": "second compound 0.003 µM, first compound 10 µM", "value": 70.6, "unit": "%"}, {"measurement": "viability, T/C", "setting": "[9]", "value": 103, "unit": "%"}, {"measurement": "viability, T/C", "setting": "[10]", "value": 83.4, "unit": "%"}, {"measurement": "viability, T/C", "setting": "[11]", "value": 109, "unit": "%"}, {"measurement": "viability, T/C", "setting": "[12]", "value": 96.5, "unit": "%"}, {"measurement": "viability, T/C", "setting": "second compound 0.00949 µM, first compound 3.16 µM", "value": 84.5, "unit": "%"}, {"measurement": "viability, T/C", "setting": "second compound 0.00949 µM, first compound 10 µM", "value": 68.3, "unit": "%"}, {"measurement": "viability, T/C", "setting": "[13]", "value": 86.6, "unit": "%"}, {"measurement": "viability, T/C", "setting": "[14]", "value": 83.2, "unit": "%"}, {"measurement": "viability, T/C", "setting": "[15]", "value": 84.1, "unit": "%"}, {"measurement": "viability, T/C", "setting": "[16]", "value": 80.3, "unit": "%"}, {"measurement": "viability, T/C", "setting": "second compound 0.03 µM, first compound 3.16 µM", "value": 82.2, "unit": "%"}, {"measurement": "viability, T/C", "setting": "second compound 0.03 µM, first compound 10 µM", "value": 70.7, "unit": "%"}, {"measurement": "viability, T/C", "setting": "[17]", "value": 90.6, "unit": "%"}, {"measurement": "viability, T/C", "setting": "[18]", "value": 82.9, "unit": "%"}, {"measurement": "viability, T/C", "setting": "[19]", "value": 93.7, "unit": "%"}, {"measurement": "viability, T/C", "setting": "[20]", "value": 95.3, "unit": "%"}, {"measurement": "viability, T/C", "setting": "second compound 0.0949 µM, first compound 3.16 µM", "value": 82.9, "unit": "%"}, {"measurement": "viability, T/C", "setting": "second compound 0.0949 µM, first compound 10 µM", "value": 98.7, "unit": "%"}, {"measurement": "viability, T/C", "setting": "[21]", "value": 106, "unit": "%"}, {"measurement": "viability, T/C", "setting": "[22]", "value": 78.9, "unit": "%"}, {"measurement": "viability, T/C", "setting": "[23]", "value": 94.3, "unit": "%"}, {"measurement": "viability, T/C", "setting": "[24]", "value": 104, "unit": "%"}, {"measurement": "viability, T/C", "setting": "second compound 0.3 µM, first compound 3.16 µM", "value": 84.3, "unit": "%"}, {"measurement": "viability, T/C", "setting": "second compound 0.3 µM, first compound 10 µM", "value": 87.9, "unit": "%"}]}
{"smiles": "CCN1CCN(Cc2ccc(Nc3ncc(F)c(-c4cc(F)c5nc(C)n(C(C)C)c5c4)n3)nc2)CC1", "note": "+ CCn1c(-c2cc(N3CCN(C)CC3)cnc2C(C)OC)c2c3cc(ccc31)-c1csc(n1)CC(NC(=O)C1CC1C)C(=O)N1CCCC(N1)C(=O)OCC(C)(C)C2", "values": [{"measurement": "IC50", "setting": "second compound 0.000949 µM", "value": "> 1", "unit": "µM"}, {"measurement": "IC50", "setting": "second compound 0.003 µM", "value": "> 1", "unit": "µM"}, {"measurement": "IC50", "setting": "second compound 0.00949 µM", "value": "> 1", "unit": "µM"}, {"measurement": "IC50", "setting": "second compound 0.03 µM", "value": "> 1", "unit": "µM"}, {"measurement": "IC50", "setting": "second compound 0.0949 µM", "value": "> 1", "unit": "µM"}, {"measurement": "IC50", "setting": "second compound 0.3 µM", "value": "> 1", "unit": "µM"}, {"measurement": "viability, T/C", "setting": "second compound 0.000949 µM, first compound 0.00316 µM", "value": 101, "unit": "%"}, {"measurement": "viability, T/C", "setting": "second compound 0.000949 µM, first compound 0.01 µM", "value": 119, "unit": "%"}, {"measurement": "viability, T/C", "setting": "[1]", "value": 98.1, "unit": "%"}, {"measurement": "viability, T/C", "setting": "[2]", "value": 120, "unit": "%"}, {"measurement": "viability, T/C", "setting": "[3]", "value": 188, "unit": "%"}, {"measurement": "viability, T/C", "setting": "[4]", "value": 180, "unit": "%"}, {"measurement": "viability, T/C", "setting": "second compound 0.003 µM, first compound 0.00316 µM", "value": 102, "unit": "%"}, {"measurement": "viability, T/C", "setting": "second compound 0.003 µM, first compound 0.01 µM", "value": 137, "unit": "%"}, {"measurement": "viability, T/C", "setting": "[5]", "value": 114, "unit": "%"}, {"measurement": "viability, T/C", "setting": "[6]", "value": 90.1, "unit": "%"}, {"measurement": "viability, T/C", "setting": "[7]", "value": 142, "unit": "%"}, {"measurement": "viability, T/C", "setting": "[8]", "value": 170, "unit": "%"}, {"measurement": "viability, T/C", "setting": "second compound 0.00949 µM, first compound 0.00316 µM", "value": 115, "unit": "%"}, {"measurement": "viability, T/C", "setting": "second compound 0.00949 µM, first compound 0.01 µM", "value": 126, "unit": "%"}, {"measurement": "viability, T/C", "setting": "[9]", "value": 96.2, "unit": "%"}, {"measurement": "viability, T/C", "setting": "[10]", "value": 105, "unit": "%"}, {"measurement": "viability, T/C", "setting": "[11]", "value": 108, "unit": "%"}, {"measurement": "viability, T/C", "setting": "[12]", "value": 194, "unit": "%"}, {"measurement": "viability, T/C", "setting": "second compound 0.03 µM, first compound 0.00316 µM", "value": 90.4, "unit": "%"}, {"measurement": "viability, T/C", "setting": "second compound 0.03 µM, first compound 0.01 µM", "value": 106, "unit": "%"}, {"measurement": "viability, T/C", "setting": "[13]", "value": 87.7, "unit": "%"}, {"measurement": "viability, T/C", "setting": "[14]", "value": 105, "unit": "%"}, {"measurement": "viability, T/C", "setting": "[15]", "value": 131, "unit": "%"}, {"measurement": "viability, T/C", "setting": "[16]", "value": 212, "unit": "%"}, {"measurement": "viability, T/C", "setting": "second compound 0.0949 µM, first compound 0.00316 µM", "value": 98.8, "unit": "%"}, {"measurement": "viability, T/C", "setting": "second compound 0.0949 µM, first compound 0.01 µM", "value": 112, "unit": "%"}, {"measurement": "viability, T/C", "setting": "[17]", "value": 89.8, "unit": "%"}, {"measurement": "viability, T/C", "setting": "[18]", "value": 123, "unit": "%"}, {"measurement": "viability, T/C", "setting": "[19]", "value": 146, "unit": "%"}, {"measurement": "viability, T/C", "setting": "[20]", "value": 246, "unit": "%"}, {"measurement": "viability, T/C", "setting": "second compound 0.3 µM, first compound 0.00316 µM", "value": 102, "unit": "%"}, {"measurement": "viability, T/C", "setting": "second compound 0.3 µM, first compound 0.01 µM", "value": 123, "unit": "%"}, {"measurement": "viability, T/C", "setting": "[21]", "value": 123, "unit": "%"}, {"measurement": "viability, T/C", "setting": "[22]", "value": 119, "unit": "%"}, {"measurement": "viability, T/C", "setting": "[23]", "value": 162, "unit": "%"}, {"measurement": "viability, T/C", "setting": "[24]", "value": 227, "unit": "%"}]}
